Experimental data taken from US6680289B1, “Methods, compositions, and articles for odor control” (The Proctor & Gamble Company, priority 1999, dated 2004).

How the values were obtained:
[1] = cited from earlier work
[2] = Interaction of perfume components with cyclodextrin (CD); format: physicochemical; details: perfume component with cyclodextrin
From the text: The following table illustrates the molecular weight property of some of the preferred perfume versus non-preferred perfume components.

CD interaction [2]	Compound	solubility in water [1]
	ClC=CC[N+]12CN3CN(CN(C3)C1)C2.[Cl-] [Dowicil 200, 1-(3-Chlorallyl) -3,5,7-triaza-1-azoniaadamantane chloride]	freely soluble in water
significant	CCC(C)(O)CCCC(C)C (centres unmarked) [Tetrahydrolinalol]	
